# From BindingDB's records for doi:10.7270/Q22F7KMG (Eli Lilly, 1995)
# Experiments:
# [1] = biological target: T1, Dimer of Gag-Pol polyprotein [489-587] (Human immunodeficiency virus 1, UniProt P12497); assay: Protease Inhibition Assay; settings: pH 5.5; 22 °C
# T1 construct: 489-587
# From the text: (§1) In the presence of HIV-l protease, the substrate is rapidly cleaved into two parts. The biotinylated amino terminal fragment binds to the avidin Pandex beads while the FITC-containing carboxy1 terminal fragment is removed through the membrane.
# [2] = biological target: T2, Gag-Pol polyprotein [489-587] (Human immunodeficiency virus 1, UniProt P04585); assay: Protease Inhibition Assay
# T2 construct: 489-587
# From the text: as §1
SMILES,IC50 [1],IC50 [2]
"CC(C)CN(C[C@@H](O)[C@H](Cc1ccccc1)NC(=O)[C@@H](CSc1ccc2ccccc2c1)NS(C)(=O)=O)C(=O)NC(C)(C)C [(2S)-N-[(2S,3R)-4-[(tert-butylcarbamoyl)(2-methylpropyl)amino]-3-hydroxy-1-phenylbutan-2-yl]-2-methanesulfonamido-3-(naphthalen-2-ylsulfanyl)propanamide]",50 nM,50 nM
"CC(=O)N[C@H](CS(=O)(=O)c1ccc(F)cc1)C(=O)N[C@@H](CSc1ccccc1)[C@H](O)CN1C[C@H]2CCS[C@H]2C[C@H]1C(=O)NC(C)(C)C [(3aR,6S,7aS)-N-tert-butyl-5-[(2R,3R)-3-[(2S)-2-acetamido-3-[(4-fluorobenzene)sulfonyl]propanamido]-2-hydroxy-4-(phenylsulfanyl)butyl]-octahydrothieno[3,2-c]pyridine-6-carboxamide]",1.8 nM,1.8 nM
"CC(=O)N[C@H](CS(=O)(=O)c1ccc2ccccc2c1)C(=O)N[C@@H](Cc1ccccc1)[C@H](O)CN1C[C@H]2CCS[C@H]2C[C@H]1C(=O)NC(C)(C)C [(3aR,6S,7aS)-N-tert-butyl-5-[(2R,3S)-3-[(2S)-2-acetamido-3-(naphthalene-2-sulfonyl)propanamido]-2-hydroxy-4-phenylbutyl]-octahydrothieno[3,2-c]pyridine-6-carboxamide]",0.5 nM,0.5 nM
"CC(C)(C)NC(=O)[C@@H]1C[C@@H]2CCCC[C@@H]2CN1C[C@@H](O)[C@H](Cc1ccccc1)NC(=O)[C@@H](C[S+]([O-])c1ccc(F)cc1)NS(C)(=O)=O (stereo partly drawn) [(3S,4aS,8aS)-N-tert-butyl-2-[(2R,3S)-3-[(2S)-3-[(4-fluorobenzene)sulfinyl]-2-methanesulfonamidopropanamido]-2-hydroxy-4-phenylbutyl]-decahydroisoquinoline-3-carboxamide]",0.6 nM,0.6 nM
"CC(C)(C)NC(=O)[C@@H]1C[C@@H]2SCC[C@@H]2CN1C[C@@H](O)[C@H](CSc1ccccc1)NC(=O)[C@@H](CS(=O)(=O)c1ccc(F)cc1)NC(=O)C(F)(F)F [(3aR,6S,7aS)-N-tert-butyl-5-[(2R,3R)-3-[(2S)-3-[(4-fluorobenzene)sulfonyl]-2-(2,2,2-trifluoroacetamido)propanamido]-2-hydroxy-4-(phenylsulfanyl)butyl]-octahydrothieno[3,2-c]pyridine-6-carboxamide]",10 nM,10 nM
"CC(C)CN(C[C@@H](O)[C@H](Cc1ccccc1)NC(=O)[C@@H](C[S+]([O-])c1ccc2ccccc2c1)NS(C)(=O)=O)C(=O)NC(C)(C)C (stereo partly drawn) [(2S)-N-[(2S,3R)-4-[(tert-butylcarbamoyl)(2-methylpropyl)amino]-3-hydroxy-1-phenylbutan-2-yl]-2-methanesulfonamido-3-(naphthalene-2-sulfinyl)propanamide]",2.1 nM,2.1 nM
"CC(C)(C)NC(=O)[C@@H]1C[C@@H]2SCC[C@@H]2CN1C[C@@H](O)[C@H](Cc1ccccc1)NC(=O)[C@@H](CS(=O)(=O)c1cccc2cccnc12)NS(C)(=O)=O [(3aR,6S,7aS)-N-tert-butyl-5-[(2R,3S)-2-hydroxy-3-[(2S)-2-methanesulfonamido-3-(quinoline-8-sulfonyl)propanamido]-4-phenylbutyl]-octahydrothieno[3,2-c]pyridine-6-carboxamide]",0.71 nM,0.71 nM
CC(C)(C)NC(=O)[C@@H]1C[C@@H]2CCCC[C@@H]2CN1C[C@@H](O)[C@H](Cc1ccccc1)NC(=O)[C@@H](C[S+]([O-])c1ccc2ccccc2c1)NS(C)(=O)=O (some centres not stated),0.4 nM,0.4 nM
"CC(=O)N[C@H](CS(=O)(=O)c1ccc2ccccc2c1)C(=O)N[C@@H](Cc1ccccc1)[C@H](O)CN1C[C@H]2CCCC[C@H]2C[C@H]1C(=O)NC(C)(C)C [(3S,4aS,8aS)-N-tert-butyl-2-[(2R,3S)-3-[(2S)-2-acetamido-3-(naphthalene-2-sulfonyl)propanamido]-2-hydroxy-4-phenylbutyl]-decahydroisoquinoline-3-carboxamide]",1.6 nM,1.6 nM
"CC(=O)N[C@H](CS(=O)(=O)c1cccc2cccnc12)C(=O)N[C@@H](Cc1ccccc1)[C@H](O)CN1C[C@H]2CCS[C@H]2C[C@H]1C(=O)NC(C)(C)C [(3aR,6S,7aS)-N-tert-butyl-5-[(2R,3S)-3-[(2S)-2-acetamido-3-(quinoline-8-sulfonyl)propanamido]-2-hydroxy-4-phenylbutyl]-octahydrothieno[3,2-c]pyridine-6-carboxamide]",0.42 nM,0.42 nM
"CC(C)(C)NC(=O)[C@@H]1C[C@@H]2SCC[C@@H]2CN1C[C@@H](O)[C@H](CSc1ccccc1)NC(=O)[C@@H](CS(=O)(=O)c1ccc2ccccc2c1)NC(=O)C(F)(F)F [(3aR,6S,7aS)-N-tert-butyl-5-[(2R,3R)-2-hydroxy-3-[(2S)-3-(naphthalene-2-sulfonyl)-2-(2,2,2-trifluoroacetamido)propanamido]-4-(phenylsulfanyl)butyl]-octahydrothieno[3,2-c]pyridine-6-carboxamide]",1.8 nM,1.8 nM
"CC(C)(C)NC(=O)[C@@H]1C[C@@H]2SCC[C@@H]2CN1C[C@@H](O)[C@H](Cc1ccccc1)NC(=O)[C@@H](CS(=O)(=O)c1cccc2cccnc12)NC(=O)C(F)(F)F [(3aR,6S,7aS)-N-tert-butyl-5-[(2R,3S)-2-hydroxy-4-phenyl-3-[(2S)-3-(quinoline-8-sulfonyl)-2-(2,2,2-trifluoroacetamido)propanamido]butyl]-octahydrothieno[3,2-c]pyridine-6-carboxamide]",0.21 nM,0.21 nM
"CC(C)(C)NC(=O)[C@@H]1C[C@@H]2CCCC[C@@H]2CN1C[C@@H](O)[C@H](Cc1ccccc1)NC(=O)[C@@H](CSc1ccc2ccccc2c1)NS(C)(=O)=O [(3S,4aS,8aS)-N-tert-butyl-2-[(2R,3S)-2-hydroxy-3-[(2S)-2-methanesulfonamido-3-(naphthalen-2-ylsulfanyl)propanamido]-4-phenylbutyl]-decahydroisoquinoline-3-carboxamide]",5.1 nM,5.1 nM
CC(C)(C)NC(=O)[C@@H]1C[C@@H]2CCCC[C@@H]2CN1C[C@@H](O)[C@H](Cc1ccccc1)NC(=O)[C@@H](CS(=O)(=O)c1ccc(F)cc1)NS(C)(=O)=O [Saquinavir/Nelfinavir deriv.],2 nM,2 nM
"CC(C)CN(C[C@@H](O)[C@H](Cc1ccccc1)NC(=O)[C@@H](CSc1ccc(F)cc1)NS(C)(=O)=O)C(=O)NC(C)(C)C [(2S)-N-[(2S,3R)-4-[(tert-butylcarbamoyl)(2-methylpropyl)amino]-3-hydroxy-1-phenylbutan-2-yl]-3-[(4-fluorophenyl)sulfanyl]-2-methanesulfonamidopropanamide]",85 nM,85 nM
"CC(C)(C)NC(=O)[C@@H]1C[C@@H]2CCCC[C@@H]2CN1C[C@@H](O)[C@H](Cc1ccccc1)NC(=O)[C@@H](CSc1ccc(F)cc1)NS(C)(=O)=O [(3S,4aS,8aS)-N-tert-butyl-2-[(2R,3S)-3-[(2S)-3-[(4-fluorophenyl)sulfanyl]-2-methanesulfonamidopropanamido]-2-hydroxy-4-phenylbutyl]-decahydroisoquinoline-3-carboxamide]",24 nM,24 nM
